Assay results: patent publication US20120283175A1, “ANTIBACTERIAL COMPOSITIONS” (Achaogen, Inc., priority 2009, published 2012)
In brackets after ≈: the same amount, converted by molar mass.

Tests used:
[1] = test system: Klebsiella pneumoniae (ATCC 43816); type: in vivo
Protocol: Vancomycin and LpxCi-5 were dissolved in 30% HPβCD (2-hydroxypropyl-β-cyclodextrin). Test substances were each administered subcutaneously (SC) singly or in combination to test animals at 2 hours and 14 hours after bacterial inoculation then bid daily for a total of 1, 2, 3 or 7 day(s). The dosing volume was 5 mL/kg.
Groups of 5 or 10 male specific-pathogen-free CD-1 (Crl.) mice weighing 24±2 g were used. Animals were immunosuppressed by two or three intraperitoneal injections of cyclophosphamide, the first at 150 mg/kg 4 days before infection (day −4) and the second or third at 100 mg/kg 1 day before or 3 days after infection (day −1 or +3). On day 0, animals were inoculated intramuscularly (0.1 mL/thigh) into the right thigh with a specific number (1.35×10^7 CFU/mouse) of Klebsiella pneumoniae (ATCC 43816). Vehicle and test substances (singly or in combination) were each administered subcutaneously 2 hours and 14 hours after inoculation then bid for a total of 1, 2, 3 or 7 consecutive day(s). Groups at 24, 48, 72 hours and day 8 hours after treatment as the designated time of harvest, muscle of the right thigh was harvested from each of the survival test animals. An additional group with no treatment, at 2 hours after inoculation, the muscle of the right thigh was harvested and viable CFU on agar plates with or without drug were quantified by standard methods. Animals in groups designated for Day 8 harvest are 10 mice and daily tally of survivors were kept until harvest and recorded. A non-infected group was just treated with LpxCi-5 and kept out to Day 8 and then harvested. The removed muscle tissues were then homogenized in 3˜4 mL of PBS, pH 7.4, with a ceramic mortar. Homogenates of 0.1 mL were used for serial 10-fold dilutions and plated on Muller-Hinton Broth in 1.5% Bacto agar and plated in parallel with drug plates for CFU determination. The original inoculum was adjusted to 2×10^8 CFU/0.1 mL and then plated onto the 3 different drug plates of LpxCi-5 for CFU count.
The immunity of animals treated with vehicle or vancomycin alone was suppressed by two intraperitoneal injections of cyclophosphamide, the first was at 150 mg/kg 4 days before infection (day −4) and the second was at 100 mg/kg 1 day before infection (day −1). On day 0, test compound and vehicle were each administered subcutaneously at 2 and 14 hrs after animals were inoculated intramuscularly (0.1 mL/thigh) with 1.35×10^7 CFU/mouse of Klebsiella pneumoniae (ATCC 43816).
(§1) The immunity of animals treated with LpxCi-5 alone was suppressed by two or three intraperitoneal injections of cyclophosphamide, the first was at 150 mg/kg 4 days before infection (day −4); the second and the third was at 100 mg/kg 1 day before and three days after infection (day −1 and day +3). On day 0, test compound were each administered subcutaneously bid at 2 and 14 hrs after animals were inoculated intramuscularly (0.1 mL/thigh) with 1.35×10^7 CFU/mouse of Klebsiella pneumoniae (ATCC 43816) for one, two, three or seven consecutive days. At 24, 48, 72 hours or at day 8 after treatment, muscle of the right thigh was harvested from each of the test animals for CFU determination in normal and drug plates.
as §1, with “both vancomycin and the LpxC inhibitor, LpxCi-5,” for “LpxCi-5 alone”, “compounds in combination” for “compound”, “days.” for “days. At 24, 48, 72 hours or at day 8 after treatment, muscle of the right thigh was harvested from each of the test animals for CFU determination in normal and drug plates.”

envA1 (D22) E. coli = assay: MIC by broth microdilution, isogenic envA1 mutant strain; type: cell-based
Yersinia enterocolitica = assay: Checkerboard synergy assay with LpxCi-4; type: cell-based; details: combination with LpxCi-4
From the text: (§2) One classic method for assessing synergy, referred to as the checkerboard assay, is used to predict the efficacy of antibacterial agents, and is described by Scribner et. al., (Antimicrobial Agents and Chemotherapy 21(6):939-943 (1982)) and in Goodman & Gilman (The Pharmacological Basis of Therapeutics, Sixth Edition, pp. 1097-1098 (1980)). The checkerboard assay involves serial two-fold dilutions of the antibiotics individually and in combination in broth, which is then inoculated with the microorganism to be tested. After incubation, the minimum inhibitory concentration (MIC) of each drug used individually and in combination is determined (N.B., the MIC is the lowest concentration of the drug that inhibits growth in the medium). Synergism is indicated by a decrease in the MIC of each drug when used in combination. Antagonism is indicated by an increase in the MIC of either or both drugs when used in combination. Alternate methods of assessing synergy are reviewed in Greco, et al., Pharmacological Reviews 47(2):[…] (1995), incorporated herein by reference in its entirety.
(§3) Partial or full inhibition of LpxC should compromise the outer membrane and thus allow these synergizing agents to enter the cells and exert an antibacterial effect at concentrations where cells untreated with an LpxC inhibitor are unaffected. As a first step, checkerboard synergy assays for a variety of antibacterial agents were perform with several LpxC inhibitors, on several species of gram negative bacteria.
(§4) Bacterial isolates were cultivated from −70° C. frozen stocks of the indicated strains by overnight passages at 35° C. in ambient air on Mueller-Hinton agar (Beckton Dickinson, Franklin Lakes, N.J.). Minimum Inhibitory Concentrations (MICs) were determined by the broth microdilution method in accordance with the Clinical and Laboratory Standards Institute (CLSI) guidelines. In brief, organism suspensions were adjusted to a 0.5 McFarland standard to yield a final inoculum between 3×10^5 and 7×10^5 colony-forming units (CFU)/mL. Drug dilutions and inocula were made in sterile, cation adjusted Mueller-Hinton Broth (Beckton Dickinson). An inoculum volume of 100 μL was added to wells containing 100 μL of broth with 2-fold serial dilutions of drug. All inoculated microdilution trays were incubated in ambient air at 35° C. for 18-24 hours. Following incubation, the lowest concentration of the drug that prevented visible growth (OD600 nm <0.05) was recorded as the MIC.
(§5) Standard checkerboard assays were performed with a combination of the indicated agents and LpxCi-4. Table 2 provides the FICI calculated according to standard techniques.

Escherichia coli = assay: Checkerboard synergy assay with LpxCi-4; type: cell-based; details: combination with LpxCi-4
From the text: as §2, §3, §4, §5

Klebsiella pneumoniae = assay: Checkerboard synergy assay with LpxCi-4; type: cell-based; details: combination with LpxCi-4
From the text: as §2, §3, §4, §5

E. coli ATCC25922 = assay: MIC by broth microdilution, wild type strain ATCC25922; type: cell-based
Protocol: as §4

Structure (SMILES): CN[C@H](CC(C)C)C(=O)N[C@H]1C(=O)N[C@@H](CC(N)=O)C(=O)N[C@H]2C(=O)N[C@H]3C(=O)N[C@H](C(=O)N[C@H](C(=O)O)c4cc(O)cc(O)c4-c4cc3ccc4O)[C@H](O)c3ccc(c(Cl)c3)Oc3cc2cc(c3O[C@@H]2O[C@H](CO)[C@@H](O)[C@H](O)[C@H]2O[C@H]2C[C@](C)(N)[C@H](O)[C@H](C)O2)Oc2ccc(cc2Cl)[C@H]1O [Vancomycin, vancomycin]
- Mean CFU/g thigh muscle (SEM) ([1]; 24 hr, normal plates, SC bid × 1, Vancomycin 25 mg/kg, LpxC-i 35 mg/kg): all animals died
- animals for which the inoculum was lethal at 24 hours ([1]; Vancomycin only treatment group): 100%
- time within which all mice died ([1]; vancomycin alone, SC at 2 and 14 hrs after inoculation): ≤ 24 h
- MIC (envA1 (D22) E. coli; Strain envA1 (D21)): 32 µg/mL (≈ 22.1 µM)
- Fold decrease in MIC (envA+/envA1) (envA1 (D22) E. coli; envA+ vs envA1 E. coli): ≧8
- FICI index (Yersinia enterocolitica): ≦0.31
- FICI index (Escherichia coli): ≦0.28
- FICI index (Klebsiella pneumoniae): ≦0.18
- MIC (E. coli ATCC25922): > 256 µg/mL
